Test results published in US10287269B2, “Pyrazolyl pyrimidinone compounds as PDE2 inhibitors” (Merck Sharp & Dohme Corp., priority 2015, dated 2019).

molecular target: T1, Rhesus PDE2A3 (Macaca mulatta, UniProt B3VTJ2); assay: PDE2 fluorescence polarization (IMAP FP) inhibition assay, rhesus enzyme; type: biochemical, rhesus macaque; conditions: Lab A; read-out: Rhesus PDE2 Ki (nM) Lab A
T1 construct: made in house; host or cells: AD293 cells, transient transfection, pcDNA3.3-TOPO; lysate supernatant used as enzyme
T1 sequence (B3VTJ2 1-941): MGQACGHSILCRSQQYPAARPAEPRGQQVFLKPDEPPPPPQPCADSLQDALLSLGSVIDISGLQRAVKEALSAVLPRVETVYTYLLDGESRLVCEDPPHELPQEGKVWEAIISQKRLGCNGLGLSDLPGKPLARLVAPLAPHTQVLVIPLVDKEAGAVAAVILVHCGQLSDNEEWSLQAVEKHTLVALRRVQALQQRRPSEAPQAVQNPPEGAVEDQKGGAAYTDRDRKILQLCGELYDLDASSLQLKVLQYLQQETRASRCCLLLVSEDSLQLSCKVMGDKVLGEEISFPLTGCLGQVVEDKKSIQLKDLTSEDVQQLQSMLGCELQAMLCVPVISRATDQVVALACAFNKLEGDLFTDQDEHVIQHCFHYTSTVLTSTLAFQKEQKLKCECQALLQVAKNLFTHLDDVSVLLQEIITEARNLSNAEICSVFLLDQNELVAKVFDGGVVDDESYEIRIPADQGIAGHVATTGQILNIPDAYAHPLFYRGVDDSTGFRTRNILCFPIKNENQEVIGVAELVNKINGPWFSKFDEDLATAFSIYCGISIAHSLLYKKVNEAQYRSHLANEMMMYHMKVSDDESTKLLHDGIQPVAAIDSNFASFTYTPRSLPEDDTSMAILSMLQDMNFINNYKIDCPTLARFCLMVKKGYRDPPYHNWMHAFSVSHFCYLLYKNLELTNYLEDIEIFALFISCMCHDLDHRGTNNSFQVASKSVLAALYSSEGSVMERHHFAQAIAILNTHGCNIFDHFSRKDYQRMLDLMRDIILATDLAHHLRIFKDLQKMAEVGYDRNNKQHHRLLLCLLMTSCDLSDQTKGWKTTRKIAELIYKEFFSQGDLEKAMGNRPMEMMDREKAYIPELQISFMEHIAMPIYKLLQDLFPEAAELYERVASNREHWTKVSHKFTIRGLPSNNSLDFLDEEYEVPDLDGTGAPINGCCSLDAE
Experimental: The activity of the compounds in accordance with the present invention as PDE2 inhibitors may be readily determined using a fluorescence polarization (FP) methodology (Huang, W., et al., J. Biomol Screen, 2002, 7: 215).
In a typical experiment the PDE2 inhibitory activity of the compounds of the present invention was determined in accordance with the following experimental method. Rhesus PDE2A3 was amplified from rhesus macaque brain cDNA (Biochain Institute, Hayward, Calif.) using primers based on human PDE2A sequence (accession NM_002599.3) where the forward primer containing a Kozak consensus was 5′-[…]-3′ and the reverse primer was 5′-[…]-3′. Amplification with Easy-A High-Fidelity PCR cloning enzyme (Stratagene, La Jolla, Calif.) was 95° C. for 2 minutes followed by thirty three cycles of 95° C. for 40 seconds, 52° C. for 30 seconds, and 72° C. for 2 minutes 48 seconds. Final extension was 72° C. for 7 minutes. The PCR product was TA cloned into pcDNA3.3-TOPO (Invitrogen, Carlsbad, Calif.) according to standard protocol. A consensus sequence was developed from multiple clones and then deposited into GenBank (EU812167). AD293 cells (Stratagene, La Jolla, Calif.) with 70-80% confluency were transiently transfected with rhesus PDE2A3/pcDNA3.3-TOPO using Lipofectamine 2000 according to manufacturer specifications (Invitrogen, Carlsbad, Calif.). Cells were harvested 48 hours post-transfection and lysed by sonication (setting 3, 10×5 sec pulses) in a buffer containing 20 mM HEPES pH 7.4, 1 mM EDTA and Complete Protease Inhibitor Cocktail Tablets (Roche, Indianapolis, Ind.). Lysate was collected by centrifugation at 75,000×g for 20 minutes at 4° C. and supernatant utilized for evaluation of PDE2 activity. The fluorescence polarization assay for cyclic nucleotide phosphodiesterases was performed using an IMAP® FP kit supplied by Molecular Devices, Sunnyvale, Calif. (product # R8139). […] Assays were performed at room temperature in 384-well microtiter plates with an incubation volume of 20.2 μL. Solutions of test compounds were prepared in DMSO and serially diluted with DMSO to yield 8 μL of each of 10 solutions differing by 3-fold in concentration, at 32 serial dilutions per plate. […] 0% of inhibition is determined by using DMSO (1% final concentrations).
A Labcyte Echo 555 (Labcyte, Sunnyvale, Calif.) is used to dispense 200 nL from each well of the titration plate to the 384 well assay plate. Ten microliters of a solution of enzyme (1/2000 final dilution from aliquots; sufficient to produce 20% substrate conversion) was added to the assay plate. Next 10 uL of a separate solution of the substrate FAM-labeled cAMP (50 nM final concentration product # R7506 from Molecular Devices) and the activator cGMP (1 uM final concentration), prepared in the assay buffer (10 mM Tris HCl, pH 7.2, 10 mM MgCl2, 0.05% NaN3 0.01% Tween-20, and 1 mM DTT) was added to the assay plate and shaken to mix. The reaction is allowed to proceed at room temperature for 60 minutes. A binding solution is then made from the kit components, comprised of 80% Solution A, 20% Solution B and binding reagent at a volume of 1/600 the total binding solution. The enzymatic reaction is stopped by addition of 60 μl, of the binding solution to each well of the assay plates and the plates are sealed and shaken for 30 seconds. The plate was incubated at room temperature for at least one hour prior to determining the fluorescence polarization (FP). The parallel and perpendicular fluorescence of each well of the plate was measured using a Tecan Genios Pro plate reader (Tecan, Switzerland) or Perkin Elmer EnVision™ plate reader (Waltham, Mass.). Fluorescence polarization (mP) was calculated from the parallel (S) and perpendicular (P) fluorescence of each sample well and the analogous values for the median control well, containing only substrate (So and Po), using the following equation: Polarization (mP)=1000*(S/So−P/Po)/(S/So+P/Po).

SMILES | Ki
CCc1nc(-c2cnn(C(C)c3ccc(C(F)(F)F)cc3F)c2)cc(=O)[nH]1 (single isomer, unassigned) [Example 86, (S)- or (R)-2-ethyl-6-(1-(1-(2-fluoro-4-(trifluoromethyl)phenyl)ethyl)-1H-pyrazol-4-yl)pyrimidin-4(3H)-one] | 146 nM
Cc1nc(-c2cnn(C(C)c3ccc(OC(F)F)cc3F)c2)cc(=O)[nH]1 (single isomer, unassigned) [Example 87, (R)- or (S)-6-(1-(1-(4-(difluoromethoxy)-2-fluorophenyl)ethyl)-1H-pyrazol-4-yl)-2-methylpyrimidin-4(3H)-one] | 480 nM
Cc1nc(-c2cnn(C(C)c3ccc(OC(F)F)cc3F)c2)cc(=O)[nH]1 (single isomer, unassigned) [Example 88, (S)- or (R)-6-(1-(1-(4-(difluoromethoxy)-2-fluorophenyl)ethyl)-1H-pyrazol-4-yl)-2-methylpyrimidin-4(3H)-one] | 162 nM
Cc1nc(-c2cnn(C(C)c3ccc(OC(F)F)cc3C)c2)cc(=O)[nH]1 (single isomer, unassigned) [Example 89, (R)- or (S)-6-(1-(1-(4-(difluoromethoxy)-2-methylphenyl)ethyl)-1H-pyrazol-4-yl)-2-methylpyrimidin-4(3H)-one] | 1840 nM
Cc1nc(-c2cnn(C(C)c3ccc(OC(F)F)cc3C)c2)cc(=O)[nH]1 (single isomer, unassigned) [Example 90, (S)- or (R)-6-(1-(1-(4-(difluoromethoxy)-2-methylphenyl)ethyl)-1H-pyrazol-4-yl)-2-methylpyrimidin-4(3H)-one] | 150 nM
Cc1nc(-c2cnn(C(C)c3ccc(C4CC4)cc3C)c2)cc(=O)[nH]1 (single isomer, unassigned) [Example 93, (R)- or (S)-6-(1-(1-(4-cyclopropyl-2-methylphenyl)ethyl)-1H-pyrazol-4-yl)-2-methylpyrimidin-4(3H)-one] | 706 nM
Cc1nc(-c2cnn(C(C)c3ccc(CC(F)(F)F)cc3F)c2)cc(=O)[nH]1 (single isomer, unassigned) [Example 95, (R)- or (S)-6-(1-(1-(2-fluoro-4-(2,2,2-trifluoroethyl)phenyl)ethyl)-1H-pyrazol-4-yl)-2-methylpyrimidin-4(3H)-one] | 1140 nM
COCc1ccc(C(C)n2cc(-c3cc(=O)[nH]c(C)n3)cn2)c(F)c1 (single isomer, unassigned) [Example 98, (S)- or (R)-6-(1-(1-(2-fluoro-4-(methoxymethyl)phenyl)ethyl)-1H-pyrazol-4-yl)-2-methylpyrimidin-4(3H)-one] | > 2970 nM

More lines, now with the values ahead:

Ki | SMILES
179 nM | Cc1nc(-c2cnn(C(C)c3ccc(C(F)(F)F)cc3Cl)c2)cc(=O)[nH]1 (single isomer, unassigned) [Example 84, (S)- or (R)-6-(1-(1-(2-chloro-4-(trifluoromethyl)phenyl)ethyl)-1H-pyrazol-4-yl)-2-methylpyrimidin-4(3H)-one]
212 nM | Cc1nc(-c2cnn(C(C)c3ccc(C4CC4)cc3F)c2)cc(=O)[nH]1 (single isomer, unassigned) [Example 92, (S)- or (R)-6-(1-(1-(4-cyclopropyl-2-fluorophenyl)ethyl)-1H-pyrazol-4-yl)-2-methylpyrimidin-4(3H)-one]
1260 nM | Cc1nc(-c2cnn(C(C)c3ccc(CC(F)(F)F)cc3F)c2)cc(=O)[nH]1 (single isomer, unassigned) [Example 96, (S)- or (R)-6-(1-(1-(2-fluoro-4-(2,2,2-trifluoroethyl)phenyl)ethyl)-1H-pyrazol-4-yl)-2-methylpyrimidin-4(3H)-one]
464 nM | COCc1ccc(C(C)n2cc(-c3cc(=O)[nH]c(C)n3)cn2)c(F)c1 (single isomer, unassigned) [Example 97, (R)- or (S)-6-(1-(1-(2-fluoro-4-(methoxymethyl)phenyl)ethyl)-1H-pyrazol-4-yl)-2-methylpyrimidin-4(3H)-one]

same assay, conditions: Lab B; read-out: Rhesus PDE2 Ki (nM) Lab B

Ki | SMILES
301 nM | COc1cc(C(F)(F)F)ccc1[C@@H](C)n1cc(-c2cc(=O)[nH]c(C)n2)cn1 (single isomer, unassigned) [Example 1]
3680 nM | Cc1nc(-c2cc([C@@H](C)c3ccc(C(F)(F)F)cc3)n(C)n2)cc(=O)[nH]1 (single isomer, unassigned) [Example 25]
1140 nM | Cc1nc(-c2cc([C@@H](C)c3ccc(C(F)(F)F)cc3)n(C)n2)cc(=O)[nH]1 (single isomer, unassigned) [Example 26]
> 1000 nM | Cc1nc(-n2cc(C(C)c3ccc(C(F)(F)F)c(F)c3)cn2)cc(=O)[nH]1 (single isomer, unassigned) [Example 50, (R)- or (S)-6-(4-(1-(3-fluoro-4-(trifluoromethyl)phenyl)ethyl)-1H-pyrazol-1-yl)-2-methylpyrimidin-4(3H)-one]
> 1000 nM | Cc1nc(-n2cc(C(C)c3ccc(C(F)(F)F)c(F)c3)cn2)cc(=O)[nH]1 (single isomer, unassigned) [Example 51, (S)- or (R)-6-(4-(1-(3-fluoro-4-(trifluoromethyl)phenyl)ethyl)-1H-pyrazol-1-yl)-2-methylpyrimidin-4(3H)-one]
314 nM | Cc1nc(-c2cnn(C(C)c3ccc(C(F)(F)F)cc3C)c2)cc(=O)[nH]1 (single isomer, unassigned) [Example 56, (R)- or (S)-2-methyl-6-(1-(1-(2-methyl-4-(trifluoromethyl)phenyl)ethyl)-1H-pyrazol-4-yl)pyrimidin-4(3H)-one]
256 nM | Cc1nc(-c2cnn(C(C)c3ccc(OC(F)(F)F)cc3F)c2)cc(=O)[nH]1 (single isomer, unassigned) [Example 58, (R)- or (S)-6-(1-(1-(2-fluoro-4-(trifluoromethoxy)phenyl)ethyl)-1H-pyrazol-4-yl)-2-methylpyrimidin-4(3H)-one]
469 nM | Cc1nc(-c2cnn(C(C)c3ccc(OC(F)(F)F)cc3F)c2)cc(=O)[nH]1 (single isomer, unassigned) [Example 59, (S)- or (R)-6-(1-(1-(2-fluoro-4-(trifluoromethoxy)phenyl)ethyl)-1H-pyrazol-4-yl)-2-methylpyrimidin-4(3H)-one]
